Measured values as given in article PMC4112042, “Phase 1 dose-escalation study of the PARP inhibitor CEP-9722 as monotherapy or in combination with temozolomide in patients with solid tumors” (Cancer Chemotherapy and Pharmacology, 2014).

Experiments:
[1] = tested on: patients with advanced solid tumors; test: Phase 1 dose-escalation: safety, DLT and MTD
Protocol: The study consisted of a screening period to determine patient eligibility, a 14-day cycle in which CEP-9722 was administered once daily as monotherapy, and subsequent 28-day cycles in which CEP-9722 and temozolomide were administered as combination therapy. In cycle 1, the first patient in each dosing cohort received CEP-9722 on days 1, 3, 4, and 5, while other patients in each cohort received CEP-9722 on days 1–5. In cycle 2, patients received CEP-9722 and temozolomide on days 1–5 (Supplemental Fig.). CEP-9722 was escalated from a starting dose of 150 mg/day up to 1,000 mg/day, and temozolomide was given at the dose of 150 mg/m^2/day at all dose levels of CEP-9722. Both CEP-9722 and temozolomide were administered in the fasted state.
Patients were enrolled in cohorts of 3. Enrollment in the next cohort commenced when the third patient in the current cohort had completed day 28 of cycle 2 without a dose-limiting toxicity (DLT).
Safety was assessed using adverse event data, clinical laboratory test results, vital signs measurement, ECG findings, physical examination findings, ECOG performance status, and concomitant medication usage.

[2] = tested on: PARP in peripheral blood mononuclear cells (PBMCs); test: PAR ELISA in PBMCs (PARP inhibition, pharmacodynamics); type: in vivo, human
Protocol: Pharmacodynamics were assessed by the measurement of PAR concentrations in PBMCs. PBMCs were isolated at site, and the frozen cell pellet was sent to a central laboratory (Trevigen Inc., Gaithersburg, MD, USA) for processing and analysis by PAR enzyme-linked immunosorbent assay (ELISA). Pharmacodynamic samples were collected on 2 consecutive days at screening visits and on days 1, 5 (pre-dose and 2 h [cycle 1 only], 6 h, and 24 h post-dose), and 8 (at the time of hematology laboratory testing). The PAR concentrations in the 2 screening samples and the day 1 pre-dose sample were averaged to provide a baseline value, and the percentage inhibition from baseline was calculated in the post-dose samples.

advanced solid tumors = test: Best tumor response according to RECIST 1.0; type: in vivo, human
Protocol: Tumor assessment was performed within 4 weeks before the first dose of study drug and within the fourth week of cycle 2 using computed tomography or magnetic resonance imaging with contrast. In patients who continued treatment, tumor assessment was performed every 2 cycles and at the end of treatment visit, at the discretion of the investigator.

[3] = Plasma pharmacokinetics of CEP-8983 after oral CEP-9722; type: in vivo, human; conditions: patients
Protocol: Pharmacokinetic serum samples were collected on day 1 of cycle 1 pre-dose and 0.5, 1, 2, 3, 4, 6, 8, 10, and 24 h post-dose; and on day 5 of cycle 1 and cycle 2 pre-dose, and 0.5, 1, 2, 3, 4, 6, 8, 10, 24, and 48 h post-dose. Urine samples were obtained on day 1 of cycle 1 during 4 intervals in the 24 h following study drug administration. Pharmacokinetic parameters (area under the plasma drug concentration–time curve from time 0 to infinity [AUC0–∞], AUC from time 0 to the time of the last measurable drug concentration [AUC0–t], AUC for 1 dosing interval [AUCτ] following multiple doses, maximum observed plasma concentration [C max], and time to maximum observed plasma concentration [T max]) were summarized at each visit (day 1 of cycle 1 and day 5 of cycles 1 and 2) using descriptive statistics.

[4] = tested on: patients with metastatic melanoma; conditions: phase 2, metastatic melanoma, combination with temozolomide; cited from earlier work
[5] = tested on: breast and ovarian cancer patients with BRCA mutations; design: method as in PMID 20609467, PMID 20609468; conditions: monotherapy; cited from earlier work
[6] = cycle 1, single-agent CEP-9722, total, all dose levels (N=26)
[7] = cycles ≥2, CEP-9722 combined with temozolomide, 150 mg/day (N=3)
[8] = cycles ≥2, CEP-9722 combined with temozolomide, 300 mg/day (N=6)
[9] = cycles ≥2, CEP-9722 combined with temozolomide, 500 mg/day (N=3)
[10] = cycles ≥2, CEP-9722 combined with temozolomide, 750 mg/day (N=11)
[11] = cycles ≥2, CEP-9722 combined with temozolomide, 1,000 mg/day (N=3)
[12] = cohort 1, 150 mg/day, 2 evaluated
[13] = cohort 2, 300 mg/day, 6 evaluated
[14] = cohort 3, 500 mg/day, 3 evaluated
[15] = cohort 4, 750 mg/day, 9 evaluated
[16] = cohort 5, 1,000 mg/day, 2 evaluated

Compound: COc1cccc2[nH]c3c4c(c5c(c3c12)C(=O)N(CN1CCN(C)CC1)C5=O)CCC4 [CEP-9722]
- Anorexia (treatment-related adverse event, all grades) [1, 6]: 3 (12) N patients (%)
- Asthenia (treatment-related adverse event, all grades) [1, 6]: 5 (19) N patients (%)
- Blood creatinine phosphokinase increased (treatment-related adverse event, all grades) [1, 6]: 2 (8) N patients (%)
- Constipation (treatment-related adverse event, all grades) [1, 6]: 2 (8) N patients (%)
- Diarrhea (treatment-related adverse event, all grades) [1, 6]: 7 (27) N patients (%)
- Fatigue (treatment-related adverse event, all grades) [1, 6]: 4 (15) N patients (%)
- Headache (treatment-related adverse event, all grades) [1, 6]: 10 (38) N patients (%)
- Nausea (treatment-related adverse event, all grades) [1, 6]: 12 (46) N patients (%)
- Vomiting (treatment-related adverse event, all grades) [1, 6]: 7 (27) N patients (%)
- Anemia (treatment-related adverse event, all grades) [1, 7]: 0 N patients (%)
- Anorexia (treatment-related adverse event, all grades) [1, 7]: 0 N patients (%)
- Aspartate aminotransferase increased (treatment-related adverse event, all grades) [1, 7]: 0 N patients (%)
- Asthenia (treatment-related adverse event, all grades) [1, 7]: 0 N patients (%)
- Constipation (treatment-related adverse event, all grades) [1, 7]: 0 N patients (%)
- Diarrhea (treatment-related adverse event, all grades) [1, 7]: 0 N patients (%)
- Dyspepsia (treatment-related adverse event, all grades) [1, 7]: 0 N patients (%)
- Fatigue (treatment-related adverse event, all grades) [1, 7]: 0 N patients (%)
- Gamma-glutamyltransferase increased (treatment-related adverse event, all grades) [1, 7]: 0 N patients (%)
- Anemia (treatment-related adverse event, all grades) [1, 8]: 0 N patients (%)
- Anorexia (treatment-related adverse event, all grades) [1, 8]: 1 (17) N patients (%)
- Aspartate aminotransferase increased (treatment-related adverse event, all grades) [1, 8]: 0 N patients (%)
- Asthenia (treatment-related adverse event, all grades) [1, 8]: 0 N patients (%)
- Constipation (treatment-related adverse event, all grades) [1, 8]: 0 N patients (%)
- Diarrhea (treatment-related adverse event, all grades) [1, 8]: 0 N patients (%)
- Dyspepsia (treatment-related adverse event, all grades) [1, 8]: 0 N patients (%)
- Gamma-glutamyltransferase increased (treatment-related adverse event, all grades) [1, 8]: 0 N patients (%)
- Anemia (treatment-related adverse event, all grades) [1, 9]: 1 (33) N patients (%)
- Anorexia (treatment-related adverse event, all grades) [1, 9]: 0 N patients (%)
- Aspartate aminotransferase increased (treatment-related adverse event, all grades) [1, 9]: 1 (33) N patients (%)
- Asthenia (treatment-related adverse event, all grades) [1, 9]: 2 (67) N patients (%)
- Constipation (treatment-related adverse event, all grades) [1, 9]: 0 N patients (%)
- Diarrhea (treatment-related adverse event, all grades) [1, 9]: 0 N patients (%)
- Dyspepsia (treatment-related adverse event, all grades) [1, 9]: 0 N patients (%)
- Fatigue (treatment-related adverse event, all grades) [1, 9]: 0 N patients (%)
- Gamma-glutamyltransferase increased (treatment-related adverse event, all grades) [1, 9]: 1 (33) N patients (%)
- Anemia (treatment-related adverse event, all grades) [1, 10]: 1 (9) N patients (%)
- Anorexia (treatment-related adverse event, all grades) [1, 10]: 1 (9) N patients (%)
- Aspartate aminotransferase increased (treatment-related adverse event, all grades) [1, 10]: 1 (9) N patients (%)
- Asthenia (treatment-related adverse event, all grades) [1, 10]: 4 (36) N patients (%)
- Diarrhea (treatment-related adverse event, all grades) [1, 10]: 3 (27) N patients (%)
- Dyspepsia (treatment-related adverse event, all grades) [1, 10]: 2 (18) N patients (%)
- Fatigue (treatment-related adverse event, all grades) [1, 10]: 4 (36) N patients (%)
- Gamma-glutamyltransferase increased (treatment-related adverse event, all grades) [1, 10]: 2 (18) N patients (%)
- Anemia (treatment-related adverse event, all grades) [1, 11]: 0 N patients (%)
- Aspartate aminotransferase increased (treatment-related adverse event, all grades) [1, 11]: 0 N patients (%)
- Asthenia (treatment-related adverse event, all grades) [1, 11]: 0 N patients (%)
- Constipation (treatment-related adverse event, all grades) [1, 11]: 1 (33) N patients (%)
- Dyspepsia (treatment-related adverse event, all grades) [1, 11]: 0 N patients (%)
- Fatigue (treatment-related adverse event, all grades) [1, 11]: 1 N patients (%)
- Gamma-glutamyltransferase increased (treatment-related adverse event, all grades) [1, 11]: 0 N patients (%)
- abdominal pain, adverse event ([1]; human, in vivo): 35%
- anemia, adverse event ([1]; human, in vivo): 23%
- anorexia, adverse event ([1]; human, in vivo): 35%
- asthenia, adverse event ([1]; human, in vivo): 42%
- constipation, adverse event ([1]; human, in vivo): 50%
- diarrhea, adverse event ([1]; human, in vivo): 42%
- fatigue, adverse event ([1]; human, in vivo): 31%
- grade 3–4 lymphopenia (laboratory) ([1]; human, in vivo): 5 patients
- headache, adverse event ([1]; human, in vivo): 50%
- nausea, adverse event ([1]; human, in vivo): 77%
- patients with treatment-related adverse events (TRAEs) ([1]; human, in vivo): 24 (92 %) patients (%)
- recommended phase 2 dose ([1]; human, in vivo): 750 mg/day
- vomiting, adverse event ([1]; human, in vivo): 65%
- Abdominal pain (treatment-related adverse event, all grades) ([1]; human, in vivo, 14 day): 2 (8) N patients (%)
- central review of ECGs ([1]; in vivo): no clinically significant abnormalities
- patients who withdrew due to adverse events ([1]; in vivo): Four patients
- patients with dose delays due to hematological toxicity ([1]; in vivo): three patients
- patients with grade 3–4 laboratory hematologic toxicities ([1]; in vivo): Six patients
- maximum tolerated dose (MTD) ([1]; with temozolomide 150 mg/m^2): 750 mg/day
- PAR concentrations in PBMCs relative to baseline ([2]; 2 and 6 h post-dose, cycle 1, without temozolomide): reduction in PAR concentrations relative to baseline was observed
- reduction in PAR concentrations in PBMCs ([2]; 6 h post-dose, cycle 2, with temozolomide): less marked
- inhibitory effects on PAR production ([2]; 24 h post-dose sample): lost
- Partial response (advanced solid tumors; [12]): 0 patients
- Progressive disease (advanced solid tumors; [12]): 2 patients
- Stable disease (advanced solid tumors; [12]): 0 patients
- Partial response (advanced solid tumors; [13]): 0 patients
- Progressive disease (advanced solid tumors; [13]): 5 patients
- Stable disease (advanced solid tumors; [13]): 1 patients
- Partial response (advanced solid tumors; [14]): 0 patients
- Progressive disease (advanced solid tumors; [14]): 1 patients
- Stable disease (advanced solid tumors; [14]): 2 patients
- Partial response (advanced solid tumors; [15]): 0 patients
- Progressive disease (advanced solid tumors; [15]): 8 patients
- Stable disease (advanced solid tumors; [15]): 1 patients
- Partial response (advanced solid tumors; [16]): 1 patients
- Progressive disease (advanced solid tumors; [16]): 1 patients
- Stable disease (advanced solid tumors; [16]): 0 patients
- reduction in target lesions (RECIST) in the patient with partial response (advanced solid tumors; melanoma patient, 1,000 mg/day with temozolomide): 58%
- duration of partial response (advanced solid tumors; melanoma patient, 1,000 mg/day with temozolomide, first observed after 6 cycles): 5.8 months
- Progressive disease (advanced solid tumors; total, all cohorts, 22 evaluated): 17 patients
- conversion of CEP-9722 into its active form [3]: rapid

Compound: CNCc1ccc(-c2[nH]c3cc(F)cc4c3c2CCNC4=O)cc1 [rucaparib]
- patients requiring a reduction in the dose of temozolomide due to enhanced myelosuppression [4]: approximately half

Compound: O=C(c1cc(Cc2n[nH]c(=O)c3ccccc23)ccc1F)N1CCN(C(=O)C2CC2)CC1 [olaparib]
- RECIST responses [5]: 30–40%
